Source: US20200078404A1, “COMBINATION OF A CELL THERAPY AND AN IMMUNOMODULATORY COMPOUND” (Juno Therapeutics, Inc., priority 2017, published 2020)

How the values were obtained:
[1] = tested on: anti-CD19 CAR-expressing T cells; experiment: Surface markers after anti-idiotypic antibody stimulation; format: cell-based, human
Excerpt: CAR-expressing T cells were stained for CD3, CD4, CD8 and the surrogate marker for CAR expression, and also for the following markers: CD25, PD-1, and CD69.

[2] = tested on: anti-CD19 CAR-expressing T cells; experiment: Serial stimulation with K562.CD19: surface markers; format: cell-based, human
Protocol: (§1) Every 3-4 days (start of each new round), the cells were counted.
Expression of select surface markers was assessed on cells at day 4 (i.e., 4 days after the first stimulation) and day 28 (i.e., 4 days after the seventh stimulation). Specifically, harvested cells were analyzed by flow cytometry for CD3, CD4, CD8 and the surrogate marker for CAR expression, and also for the following surface markers: CD69, CD107a, PD-1, CD25, CD62L, CCR7, CD45RO, CD27, and LAG3.

[3] = tested on: anti-CD19 CAR-expressing T cells; experiment: Cytokine production after anti-idiotypic antibody stimulation; conditions: anti-idiotypic antibody 0.3-30 μg/ml, 24 hours; Compound 1 100, 1000 nM; lenalidomide 500, 5000 nM
[4] = tested on: anti-CD19 CAR-expressing T cells; experiment: T cell surface markers of anti-CD19 CAR-expressing T cells incubated with K562.CD19; format: cell-based, human
[5] = tested on: Raji lymphoma tumor cells; experiment: Raji lymphoma xenograft model, anti-CD19 CAR-expressing cells with Compound 1; format: in vivo, mouse; conditions: Compound 1 0.3 mg/kg i.p. daily, Concurrent and Delayed groups, combined with anti-CD19 CAR-expressing cells, vs CAR-expressing cells alone
Protocol: The anti-tumor efficacy of CAR-expressing T cells in combination with Compound 1 was assessed by monitoring tumors in a tumor xenograft model. […] T cell compositions were generated from three different donors.
NOD.Cg.Prkdc^scidIL2rg^tm1Wjl/SzJ (NSG) mice were injected intravenously (i.v.) with 0.5×10^6 Raji lymphoma tumor cells (an immortalized human B lymphocyte tumor cell line that expresses CD19) that were transfected with firefly luciferase (Raji-ffluc). Tumor engraftment was allowed to occur for 6 days and verified using bioluminescence imaging. On Day 7, mice either received no treatment, or a single intravenous (i.v.) injection of anti-CD19 CAR-expressing cells at a low dose (0.5×10^6 cells) or a high dose (1.0×10^6 cells). […] Tumor burden was assessed by bioluminescence every 10 days. For bioluminescence imaging, mice received intraperitoneal (i.p.) injections of luciferin substrate (CaliperLife Sciences, Hopkinton, Mass.) resuspended in PBS (15 μg/g body weight). The average radiance (p/s/cm^2/sr) was determined.

K562.CD19 target cells [6] = experiment: Serial stimulation with K562.CD19: cytolytic function at day 24; format: cell-based, human; conditions: day 24 after serial stimulation
Excerpt: as §1

Ikaros = experiment: Intracellular Ikaros in anti-CD19 CAR-expressing T cells (flow cytometry); format: cell-based, human
Protocol: Cells of the enriched CD4+ and CD8+ compositions were separately activated with anti-CD3/anti-CD28 beads and subjected to lentiviral transduction with a vector encoding an anti-CD19 CAR. […] Transduced populations then were separately incubated in the presence of stimulating reagents for cell expansion.

[7] = tested on: anti-CD19 CAR-expressing T cells; experiment: Cytokine production of anti-CD19 CAR-expressing T cells incubated with K562.CD19 target cells; format: cell-based, human
[8] = tested on: anti-CD19 CAR-expressing T cells; experiment: Serial stimulation with K562.CD19: expansion (cell doublings); format: cell-based, human
Excerpt: as §1

K562.CD19 target cells [9] = experiment: Cytolytic function of anti-CD19 CAR-expressing T cells against K562.CD19 target cells; format: cell-based, human
Protocol: K562.CD19 target cells were transduced with NucLight Red to permit their tracking by microscopy. Cytolytic activity was assessed by measuring the loss of viable target cells over a period of five days, as determined by red fluorescent signal (using the IncuCyte® Live Cell Analysis System, Essen Bioscience).

SMILES: Cc1nc2cccc(N)c2c(=O)n1C1CCC(=O)NC1=O (stereo not drawn) [Compound 1]
- surface markers CD25 and CD69 ([1]; CD4+ and CD8+ CAR-expressing T cells, day 4, some donors): increase in surface markers CD25 and CD69
- expression of PD-1 ([1]; day 4, unchanged or decreased in the other donors): increased in the presence of Compound 1 or lenalidomide in cells generated from at least one donor
- expression of CD28 ([2]; CD4+ and CD8+ CAR-expressing T cells, day 28, three donors): decreased in a dose-dependent manner
- PD-1 expression ([2]; both E:T ratios, day 4 and day 28): downregulated to some degree in all donors
- CD25 and LAG3 expression ([2]; day 4): upregulated across all three donors
- CCR7 expression ([2]; day 28): generally decreased at day 28
- IFN-γ, IL-2 and TNF-α production [3]: increased relative to the vehicle control
- expression of CD27 ([4]; all donors and E:T ratios): downregulated in a concentration-dependent manner
- expression of CD45RO ([4]; all donors and E:T ratios): increased
- expression of CD69 and LAG3 ([4]; cells derived from donor 3): increased in a concentration-dependent manner
- tumor burden and survival [5]: reduce tumor burden and improve survival data
- cytolytic activity of anti-CD19 CAR-expressing T cells (K562.CD19 target cells [6]): increase the cytolytic activity
- reduction in Ikaros expression compared to lenalidomide (Ikaros): greater reduction in Ikaros expression
- intracellular Ikaros expression (Ikaros; CD4+ and CD8+ anti-CD19 CAR-expressing T cells): concentration-dependent decrease in intracellular Ikaros expression
- cytokine production compared to lenalidomide at equivalent concentrations [7]: greater cytokine production across multiple conditions
- cytokine production (IFN-γ, IL-2, TNF-α) ([7]; concentration-dependent, E:T 5:1 and 2.5:1, 24 hours, vs vehicle): increased
- cell counts of anti-CD19 CAR-expressing T cells ([8]; 10 nM and 100 nM Compound 1, after 24 days): higher than the untreated controls for two out of three donors
- number of doublings of CAR+ cells ([8]; 500 nM Compound 1, rounds after 3-4 rounds of stimulation): lower than the untreated control groups
- cytolytic activity of anti-CD19 CAR-expressing cells (K562.CD19 target cells [9]; 2.5:1 E:T ratio, some donors): slightly reduced cytolytic activity
- cytolytic activity of anti-CD19 CAR-expressing T cells (K562.CD19 target cells [9]; 5:1 E:T ratio, high concentrations, Donor 2, no effects with Donors 1 and 3): slight but consistent increase in cytolytic activity
- cytolytic function of anti-CD19 CAR-expressing T cells (K562.CD19 target cells [9]; five days, three donors): limited effect on cytolytic function
